Experimental data as given in patent publication US9469615B2, “Quinoxalines and AZA-quinoxalines as CRTH2 receptor modulators” (Merck Sharp & Dohme Corp., priority 2010, dated 2016).

target: T1, hCRTH2 (Homo sapiens, UniProt Q9Y5Y4); experiment: Radioligand binding assay ([3H]PGD2 competition, HEK-hCRTH2 membranes); conditions: [3H]PGD2 binding, rated A-E (Table A)
T1 construct: expressed in transfected cells; host or cells: HEK (human embryonic kidney) cells expressing hCRTH2; membrane preparation
T1 sequence (Q9Y5Y4 1-395): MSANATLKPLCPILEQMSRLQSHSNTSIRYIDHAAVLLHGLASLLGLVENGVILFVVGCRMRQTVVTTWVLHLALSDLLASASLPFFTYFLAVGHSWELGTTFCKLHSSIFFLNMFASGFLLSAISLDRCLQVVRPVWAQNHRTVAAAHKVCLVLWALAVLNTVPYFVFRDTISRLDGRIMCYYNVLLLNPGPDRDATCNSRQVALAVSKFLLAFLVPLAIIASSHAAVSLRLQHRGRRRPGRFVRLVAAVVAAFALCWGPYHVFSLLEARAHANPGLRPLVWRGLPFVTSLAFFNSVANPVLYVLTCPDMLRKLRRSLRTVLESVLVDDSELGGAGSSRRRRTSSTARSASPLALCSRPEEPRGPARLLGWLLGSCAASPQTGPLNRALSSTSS
Outline: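 Competition binding with 3.0 nM [3H]PGD2 and 8-20 μg HEK-hCRTH2 membrane protein in 50 mM Tris-HCl pH 7.4, 1 mM EDTA, 2 mM MnCl2, 1% Me2SO, 60 min at room temperature. Nonspecific binding defined with 10 μM PGD2; bound radioactivity counted after filtration.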

SMILES | Ki [nM]
O=C(NCc1cccc(Cl)c1)c1ccc2nc(-c3ccccc3)c(CCCc3nnn[nH]3)nc2c1 [compound 22] | 20.1 to 200
O=C(O)CCCCc1nc2cc(C(=O)NCc3ccccn3)ccc2nc1-c1ccc(C(F)(F)F)cc1 [3AE, 7-[[(2-pyridinylmethyl)-amino]carbonyl]-3-[4-(trifluoromethyl)phenyl]-2-quinoxalinepentanoic acid] | 2.1 to 20
O=C(O)Cc1cccc(CCc2nc3cc(C(=O)NCc4cccc(F)c4)ccc3nc2-c2ccc(F)cc2)c1 [compound 192, 3-[2-[3-(4-fluorophenyl)-7-[[[(3-fluorophenyl)methyl]amino]carbonyl]-2-quinoxalinyl]ethyl]benzencacetic acid] | 2.1 to 20
O=C(O)Cc1cccc(CCc2nc3cc(C(=O)N4CCC(c5ccccc5)CC4)ccc3nc2-c2ccc(Cl)cc2)c1 [compound 19, 2-(3-(2-(3-(4-chlorophenyl)-7-(4-phenylpiperidine-1-carbonyl)quinoxalin-2-yl)ethyl)phenyl)acetic acid] | 2.1 to 20
O=C(O)CCCCc1nc2cc(C(=O)NCc3cccc(Cl)c3)ccc2nc1-c1ccc(C(F)(F)F)cc1 [compound 151, 7-[[[(3-chlorophenyl)methyl]amino]carbonly]-3-[4-(trifluoromethyl)phenyl]-2-quinoxalinepentanoic acid] | 0.1 to 2

Other lines, results leading:

Ki [nM] | SMILES
0.1 to 2 | Cc1cnnn1C1CCN(C(=O)c2ccc3nc(-c4ccccc4)c(CCCCC(=O)O)nc3c2)CC1 [15BR, 5-(7-{[4-(5-methyl-1H-1,2,3-triazol-1-yl)piperidin-1-yl]carbonyl}-3-phenylquinoxalin-2-yl)pentanoic acid]
0.1 to 2 | O=C(O)CCCCc1nc2cc(C(=O)N[C@H]3CCc4ccccc43)ccc2nc1-c1ccc(Cl)cc1 [16AP, 3-(4-chlorophenyl)-7-[[(2,3-dihydro-1H-inden-1(S)-yl)amino]carbonyl]-2-quinoxalinepentanoic acid]
0.1 to 2 | O=C(O)CCCCc1nc2cc(C(=O)N[C@@H](c3ccc(F)cc3)C(F)(F)F)ccc2nc1-c1ccc(Cl)cc1 [16Y, 3-(4-chlorophenyl)-7-[[[2,2,2-trifluoro-1(S)-(4-fluorophenyl)ethyl]amino]carbonyl]-2-quinoxalinepentanoic acid]
20.1 to 200 | C[C@@H](NC(=O)c1ccc2nc(-c3ccc(C(F)(F)F)cc3)c(CCCCC(=O)O)nc2c1)c1cccc(-c2ccccc2)c1 [4D, 7-[[[1-(R)-[1,1′-biphenyl]-3-ylethyl]amino]carbonyl]-3-[4-(trifluoromethyl)-phenyl]-2-quinoxaline-pentanoic acid]
0.1 to 2 | C[C@@H](NC(=O)c1ccc2nc(-c3ccc(Cl)cc3)c(CCCCC(=O)O)nc2c1)c1ccc(F)cc1 [16S, 3-(4-chlorophenyl)-7-[[[1(R)-(4-fluorophenyl)ethyl]amino]carbonyl]-2-quinoxalinepentanoic acid]
0.1 to 2 | O=C(O)CCCCc1nc2cc(C(=O)N3CCC(c4ccccc4)CC3)ccc2nc1-c1ccc(Cl)cc1Cl [26Y, 3-(2,4-dichlorophenyl)-7-[(4-phenyl-1-piperidinyl)carbonyl]-2-quinoxalinepentanoic acid]
20.1 to 200 | C[C@@H](NC(=O)c1ccc2nc(-c3ccccc3)c(NCCCC(=O)O)nc2c1)c1ccc(C#N)cc1 [44G]
2.1 to 20 | O=C(O)CCCCc1nc2cc(C(=O)NC3(c4ccccc4)CC3)ccc2nc1-c1ccccc1 [15AE, 5-{3-phenyl-7-[(1-phenylcyclopropyl)carbamoyl]quinoxalin-2-yl}pentanoic acid]
20.1 to 200 | O=C(O)CCCCc1nc2cc(C(=O)NCc3ccncc3)ccc2nc1-c1ccccc1 [15AH, 5-{3-phenyl-7-[(pyridin-4-ylmethyl)carbamoyl]quinoxalin-2-yl} pentanoic acid]
2.1 to 20 | O=C(O)CCCCc1nc2cc(C(=O)NCCCN3CCCC3=O)ccc2nc1-c1ccccc1 [15BN, 5-(7-{[3-(2-oxopyrrolidin-1-yl)propyl]carbamoyl}-3-phenylquinoxalin-2-yl)pentanoic acid]
0.1 to 2 | O=C(O)CCCCc1nc2cc(C(=O)N[C@@H]3CCc4ccccc43)ccc2nc1-c1ccc(Cl)cc1 [16Ao, 3-(4-chlorophenyl)-7-[[(2,3-dihydro-1H-inden-1(R)-yl)amino]carbonyl]-2-quinoxalinepentanoic acid]
0.1 to 2 | Cc1ccc(CNC(=O)c2ccc3nc(-c4ccccc4)c(CCCCC(=O)O)nc3c2)cc1 [15AW, 5-{7-[(4-methylbenzyl)carbamoyl]-3-phenylquinoxalin-2-yl}pentanoic acid]
0.1 to 2 | O=C(O)CCCCc1nc2cc(C(=O)N3CCC(Cc4ccccc4)C3)ccc2nc1-c1ccccc1 (stereo not drawn) [15R, 5-{7-[(3-benzylpyrrolidin-1-yl)carbonyl]-3-phenyl-quinoxalin-2-yl}pentanoic acid]
2.1 to 20 | CC(C)NC(=O)c1ccc2nc(-c3ccc(F)cc3)c(CCCCC(=O)O)nc2c1 [5R, 3-(4-fluorophenyl)-7-[[(1-methylethyl)amino]carbonyl]-2-quinoxalinepentanoic acid]
201 to 700 | O=C(O)CCCCc1nc2cc(C(=O)Nc3ccccc3F)ccc2nc1-c1ccc(F)cc1 [5P, 3-(4-fluorophenyl)-7-[[(2-fluorophenyl)amino]carbonyl]-2-quinoxalinepentanoic acid]

same assay, conditions: [3H]PGD2 binding, values in text

Ki [nM] | SMILES
0.1 | Cc1cnnn1C1CCN(C(=O)c2ccc3nc(-c4ccccc4)c(CCCCC(=O)O)nc3c2)CC1 [15BR, 5-(7-{[4-(5-methyl-1H-1,2,3-triazol-1-yl)piperidin-1-yl]carbonyl}-3-phenylquinoxalin-2-yl)pentanoic acid]
0.7 | C[C@@H](NC(=O)c1ccc2nc(-c3ccc(Cl)cc3)c(CCCCC(=O)O)nc2c1)c1ccc(F)cc1 [16S, 3-(4-chlorophenyl)-7-[[[1(R)-(4-fluorophenyl)ethyl]amino]carbonyl]-2-quinoxalinepentanoic acid]
21.4 | Cc1cnccc1N1CCN(C(=O)c2ccc3nc(-c4ccc(F)cc4)c(CCCCC(=O)O)nc3c2)CC1 [compound 368, 5-(3-(4-fluorophenyl)-7-(4-(3-methylpyridin-4-yl)piperazine-1-carbonyl)quinoxalin-2-yl)pentanoic acid]
0.4 | O=C(O)CCCCc1nc2cc(C(=O)N[C@@H]3CCc4ccccc43)ccc2nc1-c1ccc(Cl)cc1 [16Ao, 3-(4-chlorophenyl)-7-[[(2,3-dihydro-1H-inden-1(R)-yl)amino]carbonyl]-2-quinoxalinepentanoic acid]
266 | O=C(O)CCCCc1nc2cc(C(=O)Nc3ccccc3F)ccc2nc1-c1ccc(F)cc1 [5P, 3-(4-fluorophenyl)-7-[[(2-fluorophenyl)amino]carbonyl]-2-quinoxalinepentanoic acid]

same assay, conditions: [3H]PGD2 competition, Table B

Ki [nM] | SMILES
2.1 to 20 | O=C(O)CCCCc1nc2cc(C(=O)N3CC(n4cccn4)C3)ccc2nc1-c1ccc(Cl)cc1 [compound 324, 5-(7-(3-(1H-pyrazol-1-yl)azetidine-1-carbonyl)-3-(4-chlorophenyl)quinoxalin-2-yl)pentanoic acid]
2.1 to 20 | O=C(O)CCCCc1nc2cc(C(=O)N[C@@H]3CCS(=O)(=O)c4ccccc43)ccc2nc1-c1ccccc1 [compound 715, (R)-5-(7-((1,1-dioxidothiochroman-4-yl)carbamoyl)-3-phenylquinoxalin-2-yl)pentanoic acid]
2.1 to 20 | O=C(O)Cc1cc(F)cc(CCc2nc3cc(C(=O)N4CCN(c5ccccc5)CC4)ccc3nc2-c2ccc(Cl)cc2)c1 [compound 445]
2.1 to 20 | O=C(O)CCCCc1nc2cc(C(=O)N[C@@H]3CCOc4cc(F)ccc43)ccc2nc1-c1ccc(Cl)cc1 [compound 532, (R)-5-(3-(4-chlorophenyl)-7-((7-fluorochroman-4-yl)carbamoyl)quinoxalin-2-yl)pentanoic acid]
2.1 to 20 | O=C(O)CCCCc1nc2cc(C(=O)NC3CC(=O)Nc4ccccc43)ccc2nc1-c1ccc(Cl)cc1 (stereo not drawn) [compound 691, 5-(3-(4-chlorophenyl)-7-((2-oxo-1,2,3,4-tetrahydroquinolin-4-yl)carbamoyl)quinoxalin-2-yl)pentanoic acid]
2.1 to 20 | CC(CCCc1nc2cc(C(=O)N[C@@H](C)c3ccc(Cl)cc3)ccc2nc1-c1ccc(Cl)cc1)C(=O)O (stereo partly drawn) [compound 392, 5-(3-(4-chlorophenyl)-7-(((S)-1-(4-chlorophenyl)ethyl)carbamoyl)quinoxalin-2-yl)-2-methylpentanoic acid]
0.1 to 2 | O=C(O)CCCCc1nc2cc(C(=O)N[C@@H]3CCOc4ccccc43)ccc2nc1-c1ccc(F)cc1 [compound 491, (R)-5-(7-(chroman-4-ylcarbamoyl)-3-(4-fluorophenyl)quinoxalin-2-yl)pentanoic acid]
2.1 to 20 | C[C@H](CCc1nc2cc(C(=O)N[C@@H]3CCCc4ccccc43)ccc2nc1-c1ccccc1)CC(=O)O [compound 276, (R)-3-methyl-5-(3-phenyl-7-(((R)-1,2,3,4-tetrahydronaphthalen-1-yl)carbamoyl)quinoxalin-2-yl)pentanoic acid]
20.1 to 200 | Cc1cnccc1N1CCN(C(=O)c2ccc3nc(-c4ccc(F)cc4)c(CCCCC(=O)O)nc3c2)CC1 [compound 368, 5-(3-(4-fluorophenyl)-7-(4-(3-methylpyridin-4-yl)piperazine-1-carbonyl)quinoxalin-2-yl)pentanoic acid]
0.1 to 2 | Cc1ccc(N2CCN(C(=O)c3ccc4nc(-c5ccc(Cl)cc5)c(CCCCC(=O)O)nc4c3)CC2)cc1C [compound 621, 5-(3-(4-chlorophenyl)-7-(4-(3,4-dimethylphenyl)piperazine-1-carbonyl)quinoxalin-2-yl)pentanoic acid]
20.1 to 200 | O=C(N[C@H](c1ccc(F)cc1)C(F)(F)F)c1ccc2nc(-c3ccc(F)cc3)c(CCCC(F)(F)C(=O)O)nc2c1 [compound 528, (R)-2,2-difluoro-5-(3-(4-fluorophenyl)-7-((2,2,2-trifluoro-1-(4-fluorophenyl)ethyl)carbamoyl)quinoxalin-2-yl)pentanoic acid]
0.1 to 2 | O=C(O)CCCCc1nc2cc(C(=O)NC3CCCOc4ccccc43)ccc2nc1-c1ccc(Cl)cc1 (stereo not drawn) [compound 561, 5-(3-(4-chlorophenyl)-7-((2,3,4,5-tetrahydrobenzo[b]oxepin-5-yl)carbamoyl)quinoxalin-2-yl)pentanoic acid]
2.1 to 20 | C[C@H](NC(=O)c1ccc2nc(-c3ccc(Cl)cc3)c(CC3CCC(C(=O)O)C3)nc2c1)c1ccc(F)cc1 (stereo partly drawn) [compound 407, 3-((3-(4-chlorophenyl)-7-(((S)-1-(4-fluorophenyl)ethyl)carbamoyl)quinoxalin-2-yl)methyl)cyclopentane-carboxylic acid]
2.1 to 20 | C[C@@H](NC(=O)c1ccc2nc(-c3ccc(F)cc3)c(CCCC(F)(F)C(=O)O)nc2c1)c1ccc(Cl)cc1 [compound 527, (R)-5-(7-((1-(4-chlorophenyl)ethyl)carbamoyl)-3-(4-fluorophenyl)quinoxalin-2-yl)-2,2-difluoropentanoic acid]
